From ChEMBL document CHEMBL1142418, “CoMFA and HQSAR studies on 6,7-dimethoxy-4-pyrrolidylquinazoline derivatives as phosphodiesterase10A inhibitors” (Bioorg Med Chem, 2008)

Columns and labels:
[1] = target: cAMP and cAMP-inhibited cGMP 3',5'-cyclic phosphodiesterase 10A (Homo sapiens, UniProt Q9Y233); experiment: Inhibition of PDE10A
[2] = target: cGMP-inhibited 3',5'-cyclic phosphodiesterase 3A (Homo sapiens, UniProt Q14432); experiment: Inhibition of PDE3A
[3] = target: cGMP-inhibited 3',5'-cyclic phosphodiesterase 3B (Homo sapiens, UniProt Q13370); experiment: Inhibition of PDE3B
cGMP-inhibited 3',5'-cyclic phosphodiesterase 3B, sequence (Q13370 whole entry): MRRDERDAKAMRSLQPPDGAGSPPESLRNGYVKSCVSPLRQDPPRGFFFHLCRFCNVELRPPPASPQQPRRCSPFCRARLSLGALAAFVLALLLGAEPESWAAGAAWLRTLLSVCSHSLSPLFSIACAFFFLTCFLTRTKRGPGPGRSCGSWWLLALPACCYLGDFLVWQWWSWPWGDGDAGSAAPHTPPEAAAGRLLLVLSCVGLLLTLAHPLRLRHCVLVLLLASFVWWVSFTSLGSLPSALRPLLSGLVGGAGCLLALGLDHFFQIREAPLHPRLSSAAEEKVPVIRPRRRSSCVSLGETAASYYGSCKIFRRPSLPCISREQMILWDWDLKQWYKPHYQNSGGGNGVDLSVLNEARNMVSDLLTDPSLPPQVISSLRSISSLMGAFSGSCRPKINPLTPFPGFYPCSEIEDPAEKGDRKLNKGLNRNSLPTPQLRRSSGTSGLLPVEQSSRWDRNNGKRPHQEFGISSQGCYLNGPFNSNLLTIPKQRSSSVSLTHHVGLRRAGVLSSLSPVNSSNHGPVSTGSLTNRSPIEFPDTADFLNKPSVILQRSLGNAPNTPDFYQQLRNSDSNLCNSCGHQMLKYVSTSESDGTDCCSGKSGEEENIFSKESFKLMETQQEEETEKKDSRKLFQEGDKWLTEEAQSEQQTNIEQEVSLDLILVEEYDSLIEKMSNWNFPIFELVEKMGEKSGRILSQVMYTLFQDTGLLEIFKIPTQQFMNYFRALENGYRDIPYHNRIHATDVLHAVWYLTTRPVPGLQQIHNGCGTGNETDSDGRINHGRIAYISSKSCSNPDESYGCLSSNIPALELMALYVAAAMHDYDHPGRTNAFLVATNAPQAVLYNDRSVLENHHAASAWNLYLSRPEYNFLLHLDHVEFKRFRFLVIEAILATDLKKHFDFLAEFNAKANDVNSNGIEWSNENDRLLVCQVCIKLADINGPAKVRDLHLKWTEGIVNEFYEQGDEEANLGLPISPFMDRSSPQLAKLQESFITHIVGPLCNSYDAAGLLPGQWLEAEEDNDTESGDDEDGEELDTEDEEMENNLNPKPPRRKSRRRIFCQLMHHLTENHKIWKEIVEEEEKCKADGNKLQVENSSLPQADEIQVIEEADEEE

cAMP and cAMP-inhibited cGMP 3',5'-cyclic phosphodiesterase 10A, sequence (Q9Y233 whole entry): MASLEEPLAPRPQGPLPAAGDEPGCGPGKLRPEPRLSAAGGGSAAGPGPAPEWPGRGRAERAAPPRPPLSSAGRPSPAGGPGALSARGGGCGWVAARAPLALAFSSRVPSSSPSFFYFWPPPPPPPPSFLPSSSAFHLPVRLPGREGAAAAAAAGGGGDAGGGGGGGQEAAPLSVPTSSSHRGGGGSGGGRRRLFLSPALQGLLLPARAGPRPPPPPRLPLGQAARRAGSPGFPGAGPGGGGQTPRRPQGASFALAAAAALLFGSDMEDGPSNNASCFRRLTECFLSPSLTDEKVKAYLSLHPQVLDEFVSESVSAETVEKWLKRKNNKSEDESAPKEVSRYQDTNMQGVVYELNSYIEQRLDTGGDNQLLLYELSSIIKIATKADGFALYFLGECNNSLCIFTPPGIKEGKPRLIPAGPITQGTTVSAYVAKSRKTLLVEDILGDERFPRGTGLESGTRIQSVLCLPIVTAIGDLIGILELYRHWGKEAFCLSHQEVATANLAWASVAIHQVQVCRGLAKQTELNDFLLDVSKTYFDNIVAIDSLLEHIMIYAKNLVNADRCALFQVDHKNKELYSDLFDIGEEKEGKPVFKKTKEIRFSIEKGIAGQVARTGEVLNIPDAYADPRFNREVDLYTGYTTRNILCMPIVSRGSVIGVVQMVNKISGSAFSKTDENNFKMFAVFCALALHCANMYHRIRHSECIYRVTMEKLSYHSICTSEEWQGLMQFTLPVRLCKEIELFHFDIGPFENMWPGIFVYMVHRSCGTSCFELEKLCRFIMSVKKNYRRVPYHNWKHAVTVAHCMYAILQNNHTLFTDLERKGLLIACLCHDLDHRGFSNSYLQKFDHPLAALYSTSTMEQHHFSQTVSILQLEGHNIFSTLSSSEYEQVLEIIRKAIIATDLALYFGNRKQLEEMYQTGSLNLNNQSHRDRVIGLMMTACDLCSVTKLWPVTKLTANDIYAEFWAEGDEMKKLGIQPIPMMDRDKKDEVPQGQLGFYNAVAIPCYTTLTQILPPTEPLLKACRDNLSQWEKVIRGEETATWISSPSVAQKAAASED
cGMP-inhibited 3',5'-cyclic phosphodiesterase 3A, sequence (Q14432 whole entry): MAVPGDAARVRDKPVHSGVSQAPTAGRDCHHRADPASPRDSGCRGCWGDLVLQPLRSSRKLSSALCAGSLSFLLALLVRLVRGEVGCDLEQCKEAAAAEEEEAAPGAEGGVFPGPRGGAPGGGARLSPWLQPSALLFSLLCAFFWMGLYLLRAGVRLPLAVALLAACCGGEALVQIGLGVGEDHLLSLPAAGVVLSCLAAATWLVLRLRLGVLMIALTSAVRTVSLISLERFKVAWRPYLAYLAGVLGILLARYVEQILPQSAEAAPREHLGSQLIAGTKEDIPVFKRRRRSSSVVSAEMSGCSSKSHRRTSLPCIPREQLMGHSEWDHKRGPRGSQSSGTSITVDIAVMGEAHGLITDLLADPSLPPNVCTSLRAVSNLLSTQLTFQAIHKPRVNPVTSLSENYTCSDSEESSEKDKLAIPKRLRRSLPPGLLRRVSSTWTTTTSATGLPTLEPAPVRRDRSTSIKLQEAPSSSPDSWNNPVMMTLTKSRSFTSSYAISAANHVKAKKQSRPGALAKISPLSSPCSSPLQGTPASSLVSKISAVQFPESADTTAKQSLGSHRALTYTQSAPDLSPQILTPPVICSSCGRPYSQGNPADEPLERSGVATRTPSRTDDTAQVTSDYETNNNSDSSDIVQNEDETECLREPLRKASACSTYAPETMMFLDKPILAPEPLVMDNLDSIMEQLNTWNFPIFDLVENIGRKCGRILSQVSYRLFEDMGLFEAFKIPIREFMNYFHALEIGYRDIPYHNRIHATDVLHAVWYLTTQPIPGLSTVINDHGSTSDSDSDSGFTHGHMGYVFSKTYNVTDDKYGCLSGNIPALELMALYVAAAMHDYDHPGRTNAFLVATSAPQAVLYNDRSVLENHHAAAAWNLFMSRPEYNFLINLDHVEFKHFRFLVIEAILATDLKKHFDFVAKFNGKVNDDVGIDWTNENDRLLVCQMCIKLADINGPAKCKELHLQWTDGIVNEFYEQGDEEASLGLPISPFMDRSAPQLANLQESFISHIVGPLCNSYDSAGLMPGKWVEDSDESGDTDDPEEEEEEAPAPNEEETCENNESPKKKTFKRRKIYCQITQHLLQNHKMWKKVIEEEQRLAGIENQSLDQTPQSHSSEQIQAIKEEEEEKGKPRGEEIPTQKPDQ

Row | SMILES | Ki [1] | Ki [2] | Ki [3]
1 | COc1cc2ncnc(N3CC[C@@H](Oc4cccc(-c5ccccc5)c4)C3)c2cc1OC | 136 nM | – | –
2 | CCOc1cccc(O[C@@H]2CCN(c3ncnc4cc(OC)c(OC)cc34)C2)c1 | 94 nM | – | –
3 | COc1cc2ncnc(N3CC[C@@H](Oc4ccncc4)C3)c2cc1OC | 112 nM | – | –
4 | COc1cc2ncnc(N3CC[C@@H](Oc4ccccn4)C3)c2cc1OC | 123 nM | – | –
5 | COc1cc2ncnc(N3CC[C@@H](Oc4ccccc4C)C3)c2cc1OC | 326 nM | – | –
6 | COc1cc2ncnc(N3CC[C@@H](Oc4cccc5ccccc45)C3)c2cc1OC | 210 nM | – | –
7 | COc1cc2ncnc(N3CC[C@@H](Oc4cccnc4)C3)c2cc1OC | 128 nM | – | –
8 | CCOc1ccc(O[C@@H]2CCN(c3ncnc4cc(OC)c(OC)cc34)C2)cc1 | 54 nM | – | –
9 | COc1cc2ncnc(N3CC[C@@H](Oc4ccc(C(C)(C)C)cc4)C3)c2cc1OC | 100 nM | – | –
10 | COc1cc2ncnc(N3CC[C@@H](Oc4ccc5c(c4)CCC5)C3)c2cc1OC | 68 nM | – | –
11 | COc1cc2ncnc(N3CC[C@@H](Oc4ccccc4Cl)C3)c2cc1OC | 198 nM | – | –
12 | COc1cc2ncnc(N3CC[C@@H](Oc4ccccc4C#N)C3)c2cc1OC | 130 nM | – | –
13 | COc1ccc(O[C@@H]2CCN(c3ncnc4cc(OC)c(OC)cc34)C2)cc1OC | 67 nM | – | –
14 | COc1cc2ncnc(N3CC[C@@H](Oc4ccccc4OC)C3)c2cc1OC | 240 nM | – | –
15 | COc1cc2ncnc(N3CC[C@@H](Oc4ccccc4C(F)(F)F)C3)c2cc1OC | 811 nM | – | –
16 | COc1cc2ncnc(N3CC[C@@H](Oc4cccc(C(C)C)c4)C3)c2cc1OC | 171 nM | 370 nM | 474 nM
17 | COc1cc2ncnc(N3CC[C@@H](Oc4ccc(OC(F)(F)F)cc4)C3)c2cc1OC | 185 nM | 739 nM | 1820 nM

Now those with a lower Ki [1], led by results:

Row | Ki [1] | Ki [2] | Ki [3] | SMILES
18 | 44 nM | – | – | COc1cc2ncnc(N3CC[C@@H](Oc4ncc(Cl)cn4)C3)c2cc1OC
19 | 19 nM | – | – | COc1cc2ncnc(N3CC[C@@H](Oc4cc5ccccc5cn4)C3)c2cc1OC
20 | 18 nM | – | – | COc1ccc2cc(O[C@@H]3CCN(c4ncnc5cc(OC)c(OC)cc45)C3)ccc2c1
21 | 18 nM | – | – | COc1cc2ncnc(N3CC[C@@H](Oc4ccc5nc(C)ccc5c4)C3)c2cc1OC
22 | 17 nM | – | – | COc1ccc2ccc(O[C@@H]3CCN(c4ncnc5cc(OC)c(OC)cc45)C3)cc2c1
23 | 12 nM | – | – | COc1cc2ncnc(N3CC[C@@H](Oc4ccc5ncccc5c4)C3)c2cc1OC
24 | 12 nM | – | – | COc1cc2ncnc(N3CC[C@@H](Oc4ccc5cccnc5c4)C3)c2cc1OC
